This note sets out measurements from PMC7206119, “RIP1 inhibition blocks inflammatory diseases but not tumor growth or metastases” (Cell Death and Differentiation, 2019).

Among the targets are AAK1 (Homo sapiens, UniProt Q2M2I8); CAMK2A (Homo sapiens, UniProt Q9UQM7); FGFR3(G697C) (Homo sapiens, UniProt P22607, G697C); TEC (Homo sapiens, UniProt P42680); PIP5K1C (Homo sapiens, UniProt O60331); TSSK1B (Homo sapiens, UniProt Q9BXA7); HIPK4 (Homo sapiens, UniProt Q8NE63); SGK3 (Homo sapiens, UniProt Q96BR1); GRK7 (Homo sapiens, UniProt Q8WTQ7); PIK3C2G (Homo sapiens, UniProt O75747); MAP4K4 (Homo sapiens, UniProt O95819); MAP4K2 (Homo sapiens, UniProt Q12851); ABL2 (Homo sapiens, UniProt P42684); ACVR1B (Homo sapiens, UniProt P36896); SIK2 (Homo sapiens, UniProt Q9H0K1); HIPK1 (Homo sapiens, UniProt Q86Z02).

Holding throughout (experiment): biochemical
Holding throughout (set-up): DiscoverX kinase panel, active-site competition binding (KINOMEscan type), percent of control at one concentration
Details in all cases: competition binding, percent of control

Assay [1] addresses T1, ABL1(F317L)-phosphorylated (Homo sapiens, UniProt P00519, F317L).
T1 construct: phosphorylated

Another assay deals with T2, ERK1 (Homo sapiens, UniProt P27361).
T2 construct: gene MAPK3

Another assay has as its target T3, p38-beta (Homo sapiens, UniProt Q15759).
T3 construct: gene MAPK11

A further assay has as its target T4, PCTK1 (Homo sapiens, UniProt Q00536).
T4 construct: gene CDK16

For a further assay, the target named is T5, ABL1-phosphorylated (Homo sapiens, UniProt P00519).
T5 construct: phosphorylated

Chain of SIK2 (Q9H0K1 whole entry): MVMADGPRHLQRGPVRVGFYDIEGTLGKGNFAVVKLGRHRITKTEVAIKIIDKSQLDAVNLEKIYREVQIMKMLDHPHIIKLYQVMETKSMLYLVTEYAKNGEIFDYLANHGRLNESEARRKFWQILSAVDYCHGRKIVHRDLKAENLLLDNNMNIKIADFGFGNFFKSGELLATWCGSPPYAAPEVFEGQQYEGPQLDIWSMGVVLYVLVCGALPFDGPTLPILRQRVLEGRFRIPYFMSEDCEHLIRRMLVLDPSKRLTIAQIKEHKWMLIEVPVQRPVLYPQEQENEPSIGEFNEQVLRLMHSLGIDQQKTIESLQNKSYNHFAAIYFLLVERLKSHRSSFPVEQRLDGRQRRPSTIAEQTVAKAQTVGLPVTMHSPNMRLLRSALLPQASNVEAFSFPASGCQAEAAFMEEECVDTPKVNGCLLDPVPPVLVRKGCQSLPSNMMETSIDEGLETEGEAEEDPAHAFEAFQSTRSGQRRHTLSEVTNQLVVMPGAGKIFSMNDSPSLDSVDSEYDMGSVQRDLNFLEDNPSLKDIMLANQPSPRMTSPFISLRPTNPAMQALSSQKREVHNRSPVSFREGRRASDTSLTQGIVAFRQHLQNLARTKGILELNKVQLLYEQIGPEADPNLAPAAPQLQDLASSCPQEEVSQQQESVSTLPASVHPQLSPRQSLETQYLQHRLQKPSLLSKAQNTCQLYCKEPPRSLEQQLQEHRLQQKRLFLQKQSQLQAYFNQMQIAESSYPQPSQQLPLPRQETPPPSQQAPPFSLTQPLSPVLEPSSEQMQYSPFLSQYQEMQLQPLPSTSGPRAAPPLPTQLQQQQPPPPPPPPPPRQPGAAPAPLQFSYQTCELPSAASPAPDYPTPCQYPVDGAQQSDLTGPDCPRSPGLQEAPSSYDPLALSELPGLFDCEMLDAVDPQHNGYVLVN
Chain of HIPK4 (Q8NE63 whole entry): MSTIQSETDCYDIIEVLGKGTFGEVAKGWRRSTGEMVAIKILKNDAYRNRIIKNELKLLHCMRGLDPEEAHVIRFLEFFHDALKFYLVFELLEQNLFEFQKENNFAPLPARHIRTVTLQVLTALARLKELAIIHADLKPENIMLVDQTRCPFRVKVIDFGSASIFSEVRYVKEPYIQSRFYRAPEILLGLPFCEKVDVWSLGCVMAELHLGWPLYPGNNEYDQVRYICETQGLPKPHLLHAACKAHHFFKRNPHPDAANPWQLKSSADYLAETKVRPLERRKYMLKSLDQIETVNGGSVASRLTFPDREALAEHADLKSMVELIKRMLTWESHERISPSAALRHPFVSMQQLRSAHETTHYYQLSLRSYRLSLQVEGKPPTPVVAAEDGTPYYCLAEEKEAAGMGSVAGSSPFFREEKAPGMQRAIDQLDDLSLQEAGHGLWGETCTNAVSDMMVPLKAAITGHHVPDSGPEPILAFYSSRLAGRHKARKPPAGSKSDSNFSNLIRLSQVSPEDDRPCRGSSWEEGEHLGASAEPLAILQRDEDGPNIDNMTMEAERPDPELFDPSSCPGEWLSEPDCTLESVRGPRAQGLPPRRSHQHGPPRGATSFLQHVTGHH
T3 sequence (Q15759 whole entry): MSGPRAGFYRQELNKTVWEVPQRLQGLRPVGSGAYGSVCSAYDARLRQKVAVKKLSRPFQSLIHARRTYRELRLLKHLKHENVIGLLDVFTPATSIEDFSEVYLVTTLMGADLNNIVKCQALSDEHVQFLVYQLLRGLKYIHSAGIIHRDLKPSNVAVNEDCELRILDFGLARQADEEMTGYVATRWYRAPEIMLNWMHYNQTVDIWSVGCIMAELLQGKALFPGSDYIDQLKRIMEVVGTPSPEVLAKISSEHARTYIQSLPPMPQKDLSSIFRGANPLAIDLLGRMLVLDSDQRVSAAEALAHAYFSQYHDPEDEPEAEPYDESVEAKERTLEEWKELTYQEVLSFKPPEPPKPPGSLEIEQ
Chain of CAMK2A (Q9UQM7 whole entry): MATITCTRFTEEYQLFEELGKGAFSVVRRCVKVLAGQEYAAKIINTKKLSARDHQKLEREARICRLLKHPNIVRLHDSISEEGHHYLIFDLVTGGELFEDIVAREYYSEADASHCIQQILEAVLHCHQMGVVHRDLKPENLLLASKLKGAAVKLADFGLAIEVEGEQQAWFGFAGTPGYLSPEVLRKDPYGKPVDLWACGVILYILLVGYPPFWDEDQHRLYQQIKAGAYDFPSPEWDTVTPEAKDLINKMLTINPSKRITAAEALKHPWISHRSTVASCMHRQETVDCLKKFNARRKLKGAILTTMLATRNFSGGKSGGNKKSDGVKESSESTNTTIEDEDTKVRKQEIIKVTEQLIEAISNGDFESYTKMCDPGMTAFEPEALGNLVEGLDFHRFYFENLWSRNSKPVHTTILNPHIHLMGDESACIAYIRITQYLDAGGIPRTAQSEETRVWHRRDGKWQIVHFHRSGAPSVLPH
Chain of HIPK1 (Q86Z02 whole entry): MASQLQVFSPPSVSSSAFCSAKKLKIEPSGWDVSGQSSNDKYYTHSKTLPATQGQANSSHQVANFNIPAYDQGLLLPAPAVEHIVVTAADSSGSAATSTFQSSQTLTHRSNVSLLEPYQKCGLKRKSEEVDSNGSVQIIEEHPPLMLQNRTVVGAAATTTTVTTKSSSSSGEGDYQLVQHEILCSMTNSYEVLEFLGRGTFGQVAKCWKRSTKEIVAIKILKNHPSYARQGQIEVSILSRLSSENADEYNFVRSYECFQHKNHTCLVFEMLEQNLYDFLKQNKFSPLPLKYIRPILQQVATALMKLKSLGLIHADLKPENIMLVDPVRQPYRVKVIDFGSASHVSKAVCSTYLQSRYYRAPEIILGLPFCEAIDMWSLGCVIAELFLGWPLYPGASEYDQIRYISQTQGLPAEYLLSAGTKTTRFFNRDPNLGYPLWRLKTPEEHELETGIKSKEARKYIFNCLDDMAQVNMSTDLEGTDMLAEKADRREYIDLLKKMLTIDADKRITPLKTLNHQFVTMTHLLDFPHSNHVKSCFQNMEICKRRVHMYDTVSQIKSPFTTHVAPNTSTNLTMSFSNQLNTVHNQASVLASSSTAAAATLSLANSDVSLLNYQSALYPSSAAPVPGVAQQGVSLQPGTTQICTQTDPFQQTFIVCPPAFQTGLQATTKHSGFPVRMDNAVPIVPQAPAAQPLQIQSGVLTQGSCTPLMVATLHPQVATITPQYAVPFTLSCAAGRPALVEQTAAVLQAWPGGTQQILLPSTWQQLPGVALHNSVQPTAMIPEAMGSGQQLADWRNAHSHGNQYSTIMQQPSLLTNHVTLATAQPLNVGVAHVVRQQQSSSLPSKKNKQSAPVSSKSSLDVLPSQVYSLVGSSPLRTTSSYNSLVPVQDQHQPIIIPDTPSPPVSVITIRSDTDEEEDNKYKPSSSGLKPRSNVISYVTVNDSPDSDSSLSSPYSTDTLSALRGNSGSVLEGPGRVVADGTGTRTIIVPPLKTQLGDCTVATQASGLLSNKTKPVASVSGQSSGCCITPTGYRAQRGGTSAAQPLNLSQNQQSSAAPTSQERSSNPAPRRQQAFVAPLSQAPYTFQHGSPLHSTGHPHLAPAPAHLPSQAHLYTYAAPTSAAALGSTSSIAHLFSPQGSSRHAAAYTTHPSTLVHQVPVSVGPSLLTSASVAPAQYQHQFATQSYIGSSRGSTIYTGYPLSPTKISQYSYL
Chain of TEC (P42680 whole entry): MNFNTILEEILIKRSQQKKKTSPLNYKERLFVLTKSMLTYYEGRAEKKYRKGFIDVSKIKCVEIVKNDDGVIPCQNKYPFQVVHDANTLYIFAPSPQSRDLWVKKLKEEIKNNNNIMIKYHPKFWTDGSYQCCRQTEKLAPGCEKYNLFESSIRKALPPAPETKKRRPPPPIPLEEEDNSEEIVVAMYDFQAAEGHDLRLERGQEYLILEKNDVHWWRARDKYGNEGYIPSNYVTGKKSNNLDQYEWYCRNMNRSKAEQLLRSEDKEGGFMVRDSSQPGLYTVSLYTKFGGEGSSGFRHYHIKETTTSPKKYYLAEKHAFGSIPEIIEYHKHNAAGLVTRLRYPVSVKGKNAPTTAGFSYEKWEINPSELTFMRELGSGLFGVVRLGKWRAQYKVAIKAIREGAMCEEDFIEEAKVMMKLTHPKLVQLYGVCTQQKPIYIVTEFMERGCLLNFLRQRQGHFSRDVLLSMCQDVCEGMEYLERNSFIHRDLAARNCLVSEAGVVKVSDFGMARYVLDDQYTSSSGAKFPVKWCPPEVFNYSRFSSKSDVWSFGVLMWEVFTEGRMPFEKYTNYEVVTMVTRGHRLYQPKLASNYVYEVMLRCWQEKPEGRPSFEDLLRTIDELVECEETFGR
Chain of TSSK1B (Q9BXA7 whole entry): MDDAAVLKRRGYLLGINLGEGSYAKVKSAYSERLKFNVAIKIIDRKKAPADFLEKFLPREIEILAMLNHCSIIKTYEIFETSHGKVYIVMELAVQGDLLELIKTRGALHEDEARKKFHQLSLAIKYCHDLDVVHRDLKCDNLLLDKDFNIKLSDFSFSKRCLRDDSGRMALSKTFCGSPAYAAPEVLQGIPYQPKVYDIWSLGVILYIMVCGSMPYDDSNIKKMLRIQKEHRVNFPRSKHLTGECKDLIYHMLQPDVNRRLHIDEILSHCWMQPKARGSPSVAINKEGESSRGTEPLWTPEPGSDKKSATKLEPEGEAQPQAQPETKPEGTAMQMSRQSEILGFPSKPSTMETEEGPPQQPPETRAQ
T2 sequence (P27361 whole entry): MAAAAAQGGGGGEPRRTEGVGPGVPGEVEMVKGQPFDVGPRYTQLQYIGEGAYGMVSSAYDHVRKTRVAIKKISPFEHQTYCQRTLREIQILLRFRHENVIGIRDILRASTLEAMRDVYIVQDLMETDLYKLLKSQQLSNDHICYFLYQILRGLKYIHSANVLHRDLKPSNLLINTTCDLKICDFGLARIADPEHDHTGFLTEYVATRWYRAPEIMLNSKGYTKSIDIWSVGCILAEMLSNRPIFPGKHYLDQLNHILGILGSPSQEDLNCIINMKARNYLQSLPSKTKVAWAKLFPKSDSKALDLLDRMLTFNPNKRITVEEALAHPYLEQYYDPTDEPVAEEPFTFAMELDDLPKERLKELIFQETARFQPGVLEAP

As to `COc1cc2c(cn1)N(C)C(=O)[C@@H](NC(=O)c1nc3n(n1)[C@H](c1ccccc1)CC3)CC2` [GNE684, (S)-N-((S)-7-methoxy-1-methyl-2-oxo-2,3,4,5-tetrahydro-1H-pyrido[3,4-b]azepin-3-yl)-5-phenyl-6,7-dihydro-5H-pyrrolo[1,2-b][1,2,4]triazole-2-carboxamide], the remaining binding at 10 µM at AAK1 was found to be 100%; on CAMK2A, 69%; at FGFR3(G697C) it was 88%; at TEC it was 100%; at PIP5K1C, 100%; at TSSK1B, 95%. Besides, the remaining binding at 10 µM was found to be 100% at HIPK4; 93% at SGK3; 91% in assay [1]; 96% on ERK1; 100% at GRK7; 100% on PIK3C2G. For the same molecule, the remaining binding at 10 µM amounted to 97% at p38-beta; 73% on MAP4K4; 100% on MAP4K2; 82% at PCTK1; 100% on ABL2; 93% at ACVR1B. Further, the remaining binding at 10 µM at ABL1-phosphorylated is 84%; on SIK2, 98%; on HIPK1, 82%.
